Experimental data taken from patent publication US20140199327A1, “METHODS OF PROMOTING DIFFERENTIATION” (Genentech, Inc., priority 2011, published 2014).
Where a chain is given by its changes, count along the chain named. Numbers in names are those of the source. Where a SMILES comes first, the peptide text is derived from it. The star is where a group is joined. Cbz = O=C(OCc1ccccc1)*

Columns and labels:
[1] = test system: USP1; experiment: In vitro deubiquitination assay; format: biochemical, human; details: purified USP1 and ubiquitinated ID2 from 293T cells
Procedure: 293T cells were transfected with USP1-Flag, USP1-[…]-Flag or ID2-Flag and HA-ubiquitin in separate batches. Ubiquitinated ID2-Flag was immunoprecipitated as described above from SDS-boiled lysates. USP1 and USP1 […] were immunoprecipitated with Flag M2-agarose beads following lysis in NP-40 lysis buffer. All samples were eluted from beads with 500 μg/ml 3×Flag peptide (Sigma). Samples were recombined in deubiquitination buffer (20 mM HEPES, 20 mM NaCl, 100 μg/ml BSA, 500 μM EDTA, 1 mM DTT, pH=8.3) and incubated for the indicated times at room temperature. Ubiquitin levels were assessed by immunoblot with HA antibodies.

[2] = test system: 143B osteosarcoma xenograft; experiment: 143B osteosarcoma xenograft model; format: in vivo, NCr nude mice
Procedure: U2-OS, HOS, or SAOS cells were transfected three times with pRS shUSP1 or shCTL as follows: Cells were initially transfected with shUSP1 or shCTL, cultured for 2 days, and selected with puromycin for 3 days. Cells were retransfected with pMACS and shUSP1 or shCTL, cultured for 2 days, sorted by anti-H-2K^k bead sort (Miltenyi), cultured for 1 day, and serially re-transfected with shUSP1 or shCTL. Cells were cultured for an additional 3 days and osteoblast and hMSC markers were assessed by flow cytometry, real-time RT-PCR, and ALP assay. 143B cells were transduced with pTRIPZ-based inducible USP1 or control shRNA vectors and puromycin-resistant cells were subcultured.
8-week-old female NCr nude mice were injected subcutaneously in the right hind flank with 2.5×10^6 143 B shUSP1 cells in a volume of 100 μl of HBSS+matrigel. Doxycycline-treated mice were fed 1 mg/mL solutions of doxycycline in 5% sucrose water. Mice were monitored for tumor establishment and growth as well as body weight changes. When mice in a given group achieved a mean tumor volume of 2000 mm^3 and/or reached 78 days post-inoculation, mice were euthanized and dissected to confirm the presence or absence of tumor formation.

[3] = test system: proteasome; experiment: ID2 abundance after proteasome inhibition in 293T cells; format: cell-based, human; details: MG-132 10 μM
Procedure: (§1) The human cell lines 143B, 293T, HOS, MG-63, SAOS-2, SJSA, and U2-OS (ATCC) were maintained in DMEM with 10% FBS (Sigma), 10 units/ml penicillin, and 10 μg/ml streptomycin (Gibco). Primary human osteoblasts (PromoCell) were expanded in primary osteoblast medium (PromoCell) and subcultured in DMEM supplemented as above. Primary human mesenchymal stem cells derived from normal bone marrow (Lonza) were subcultured in mesenchymal stem cell growth medium (Lonza). For osteogenic differentiation studies, hMSC were cultured in osteogenic differentiation medium (Lonza) supplemented with 100 ng/mL BMP-9 (R&D Systems). Primary human osteosarcomas were obtained from CytoMix, LLC, and from the Cooperative Human Tissue Network. […] Murine NIH-3T3 (ATCC) were cultured in supplemented DMEM. Wild-type and USP1^−/− DT-40 cells were a kind gift from K. Patel and were cultured in RPMI with 7% FBS and 3% chicken serum (Gibco). MG-132 (Calbiochem) was used at 10 μM. Cycloheximide (Sigma) was used at 25 μg/ml.
(§2) Rat monoclonal antibodies were raised against the C-terminal 100 amino-acids of human USP1 or WDR48 to produce the monoclonal USP1 antibody 5E10 and WDR48 antibody 9F10. […]

[4] = test system: proteasome; experiment: ID protein abundance after proteasome inhibition in U2-OS cells; format: cell-based, human
Procedure: as §1, §2

[5] = test system: proteasome; experiment: ID2 abundance after proteasome inhibition in DT40 cells; format: cell-based, chicken
Procedure: as §1

[6] = target: T1, endogenous USP1 (U2-OS and HOS osteosarcoma cells) (human, UniProt O94782 1-785); experiment: immunoprecipitation of endogenous USP1 from U2-OS cells, blot for ID2; control with nonspecific IgG
T1 construct: Endogenous protein immunoprecipitated from human cell lines
T1 sequence: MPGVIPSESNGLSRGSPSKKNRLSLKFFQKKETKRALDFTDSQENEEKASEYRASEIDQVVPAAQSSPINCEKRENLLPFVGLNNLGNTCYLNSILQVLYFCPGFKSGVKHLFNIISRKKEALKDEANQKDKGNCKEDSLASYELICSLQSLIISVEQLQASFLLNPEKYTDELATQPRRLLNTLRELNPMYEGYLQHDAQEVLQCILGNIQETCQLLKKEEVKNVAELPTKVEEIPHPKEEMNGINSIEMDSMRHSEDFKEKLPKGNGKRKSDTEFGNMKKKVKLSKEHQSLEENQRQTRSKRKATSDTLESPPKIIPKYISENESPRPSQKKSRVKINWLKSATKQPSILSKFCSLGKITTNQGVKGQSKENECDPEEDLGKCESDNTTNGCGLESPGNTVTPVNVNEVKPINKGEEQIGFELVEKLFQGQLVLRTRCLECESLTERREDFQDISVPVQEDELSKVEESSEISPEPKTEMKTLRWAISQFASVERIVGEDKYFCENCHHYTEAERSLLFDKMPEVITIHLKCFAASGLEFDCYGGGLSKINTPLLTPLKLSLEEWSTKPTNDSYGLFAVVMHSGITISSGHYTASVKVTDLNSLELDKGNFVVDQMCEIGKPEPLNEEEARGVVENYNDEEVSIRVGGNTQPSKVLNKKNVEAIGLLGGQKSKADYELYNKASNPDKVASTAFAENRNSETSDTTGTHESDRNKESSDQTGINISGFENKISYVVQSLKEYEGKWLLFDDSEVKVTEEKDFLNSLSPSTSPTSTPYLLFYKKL

[7] = target: T2, ubiquitinated ID2-Flag (ID2 with C-terminal Flag epitope, modified with HA-ubiquitin, affinity purified from 293T cells)
T2 chain: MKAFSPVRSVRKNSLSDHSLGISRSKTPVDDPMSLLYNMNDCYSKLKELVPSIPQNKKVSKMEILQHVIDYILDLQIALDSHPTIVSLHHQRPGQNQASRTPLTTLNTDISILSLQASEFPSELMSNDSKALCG

[8] = target: T3, ID2 (co-transfected / co-expressed in 293T cells)
T3 chain: T2 chain

## CCN1C(=O)C=CC1=O [N-ethylmaleimide]
[1]
  decrease in ID2 ubiquitination by USP1: sensitive

## doxycycline-induced USP1 shRNA: doxycycline-inducible pTRIPZ shRNA targeting human USP1, 5′-AGGCAATACTTGCTATCTTAAT-3′ (SEQ ID NO:12), Open Biosystems
[2]; 143B USP1-deficient xenograft tumors
  xenograft tumors that achieved stasis and differentiation in situ: four of ten
[2]; 143B xenografts
  ALP activity in xenografts: enhanced ALP activity
[2]; 143B xenografts, doxycycline
  ID1 and ID2 in xenografts: reduced ID1 and ID2
  USP1 expression in xenografts: suppressed USP1 expression
  tumor growth: reduced 143B tumor growth
[2]; 143B xenografts, RT-PCR, in situ hybridization
  osteogenic gene expression in xenografts: promoted OSTEONECTIN, RUNX2, SPP1/OSTEOPONTIN, OSTERIX, and BGLAP/OSTEOCALCIN expression

## CC(C)C[C@@H](C=O)NC(=O)[C@H](CC(C)C)NC(=O)[C@H](CC(C)C)NC(=O)OCc1ccccc1 [MG-132] (Cbz-Leu-Leu-Leu-aldehyde)
[3]
  endogenous ID2 abundance: ID2 accumulates
[4]; U2-OS cells with USP1 knockdown
  ID expression after USP1 knockdown: did restore ID expression
[4]; U2-OS cells, MG-132 alone
  ID protein abundance: did not by itself alter ID protein abundance
[5]; USP1−/− DT40 cells
  ID2 abundance: increased ID2
[5]; wild-type DT40 cells
  ID2 abundance: not

B1: endogenous ID2 (U2-OS, HOS and 293T cells) (other)
chain: T2 chain
notes: Endogenous protein of human cell lines
[6]
  binding result: binds

B2: USP1-Flag (wild-type human USP1 with in-frame C-terminal Flag epitope) (protein)
chain: T1 sequence
[7]
  in vitro deubiquitination assay (HA-ubiquitin immunoblot of ID2-Flag): Ubiquitinated ID2 was decreased by wild-type USP1 but not USP1 C90S

B3: USP1 C90S-Flag (catalytically inactive point mutant of human USP1 with C-terminal Flag epitope) (protein)
chain: T1 sequence with C90S
[7]
  in vitro deubiquitination assay (HA-ubiquitin immunoblot of ID2-Flag): Ubiquitinated ID2 was decreased by wild-type USP1 but not USP1 C90S

B4: USP33-Flag (human USP33 with C-terminal Flag epitope) (protein)
chain: MTGSNSHITILTLKVLPHFESLGKQEKIPNKMSAFRNHCPHLDSVGEITKEDLIQKSLGTCQDCKVQGPNLWACLENRCSYVGCGESQVDHSTIHSQETKHYLTVNLTTLRVWCYACSKEVFLDRKLGTQPSLPHVRQPHQIQENSVQDFKIPSNTTLKTPLVAVFDDLDIEADEEDELRARGLTGLKNIGNTCYMNAALQALSNCPPLTQFFLDCGGLARTDKKPAICKSYLKLMTELWHKSRPGSVVPTTLFQGIKTVNPTFRGYSQQDAQEFLRCLMDLLHEELKEQVMEVEEDPQTITTEETMEEDKSQSDVDFQSCESCSNSDRAENENGSRCFSEDNNETTMLIQDDENNSEMSKDWQKEKMCNKINKVNSEGEFDKDRDSISETVDLNNQETVKVQIHSRASEYITDVHSNDLSTPQILPSNEGVNPRLSASPPKSGNLWPGLAPPHKKAQSASPKRKKQHKKYRSVISDIFDGTIISSVQCLTCDRVSVTLETFQDLSLPIPGKEDLAKLHSSSHPTSIVKAGSCGEAYAPQGWIAFFMEYVKRFVVSCVPSWFWGPVVTLQDCLAAFFARDELKGDNMYSCEKCKKLRNGVKFCKVQNFPEILCIHLKRFRHELMFSTKISTHVSFPLEGLDLQPFLAKDSPAQIVTYDLLSVICHHGTASSGHYIAYCRNNLNNLWYEFDDQSVTEVSESTVQNAEAYVLFYRKSSEEAQKERRRISNLLNIMEPSLLQFYISRQWLNKFKTFAEPGPISNNDFLCIHGGVPPRKAGYIEDLVLMLPQNIWDNLYSRYGGGPAVNHLYICHTCQIEAEKIEKRRKTELEIFIRLNRAFQKEDSPATFYCISMQWFREWESFVKGKDGDPPGPIDNTKIAVTKCGNVMLRQGADSGQISEETWNFLQSIYGGGPEVILRPPVVHVDPDILQAEEKIEVETRSL
[8]
  deubiquitinating activity against ID2: unlike USP1, USP33 lacked deubiquitinating activity against ID2 (data not shown)
